The assay has as its system human CD8^+ T cells. Description: Persistence of inhibitor-pretreated human CD8+ T cells in NSG mice at day 30 after adoptive transfer. Format: in vivo. The settings on record: transient treatment during activation; recovered after 30 days; FIG. 9. On the procedure:
Naïve human CD8^+ T cells were activated with anti-CD3/CD28 in the presence or absence of Arid1a inhibitor for 48 hours followed by expansion in IL-15 containing medium for another 4 days prior to adoptive transfer. Data are representative of two independent experiments. Data are shown as mean±s.e.m. *p<0.05; two-tailed unpaired Student's t-test.
For human CD8^+ T cell experiments, naïve CD8^+ T cells were activated by human CD3/CD28 T cell activator (StemCell) with or without an Arid1a inhibitor (BRD-K98645985; 1 μM; AOBIOUS or MedChemExpress) for two days and cultured in rhIL-15 (10 ng/ml, Peprotech) containing medium. Activated CD8^+ T cells (3×10^6) were then transferred to NOD scid gamma mice sold under the tradename NSG®. After 30 days, splenic cells were analyzed by flow cytometry.
The effect of the Arid1a inhibitor on the differentiation of activated, human CD8^+ T cells was also analyzed. Human naïve CD8^+ T cells from healthy donors were enriched and stimulated with anti-CD3/CD28, following by culturing in IL-15 or IL-2, two cytokines that respectively promote in vitro TMEM-like and TEFF-like cell formation (Buck et al. (2016) Cell 166:63-76; Mitchell et al. (2010) J. Immunol. 184:6719-6730). Arid1a inhibitor was added during different periods of culture. […] After 30 days, T cells were recovered and analyzed.

On to `CO[C@H]1CN(C)C(=O)c2cc(NC(=O)NC(C)C)ccc2OC[C@H](C)N(Cc2ccc(-c3ccccn3)cc2)C[C@@H]1C` [BRD-K98645985], for which the “persistence of activated human T cells in NSG mice” value is recorded as “enhanced persistence” and the “propensity to express markers of TCM cells in NSG mice” value is “greater propensity to express markers of TCM cells”.
